Measured values: patent US11112409B2, “Systems and compositions for diagnosing pathogenic fungal infection and methods of using the same” (priority 2016, dated 2021)
Entries after “also recorded” stand apart in the source; their conditions may differ. Square brackets hold non-standard residues; d marks the D form. Ends that are not written are not given here. Peptide text beside a SMILES is read from it. * marks the point of attachment. Lys(DNP) = Lys carrying DNP quencher; Sta = CC(C)C[C@H](N)[C@@H](O)CC(=O)O; Isovaleryl = CC(C)CC(=O)*; Nle = CCCC[C@H](N)C(=O)O

Columns and labels:
Kex2 = assay: MSP-MS profiling of conditioned media with inhibitor pretreatment, cleavage sites assigned to Kex2; format: biochemical, C. albicans; settings: 1 mM EDTA or 10 μM pepstatin A
Source text: FIG. 8 depicts global substrate specificity profiling of recombinant Kex2 from Saccharomyces cerevisiae. (top) Time-dependent generation of cleavages following dibasic (P2-P1) K/R-R residues in the MSP-MS library for recombinant Kex2 and C. albicans wild-type (SN425) conditioned media from 24-hour biofilm and planktonic cultures. Cleavage sites assigned to Kex2 in the conditioned media profiles were sensitive to EDTA and insensitive to pepstatin treatments. […] This is illustrated in the differential cleavage pattern of an example MSP-MS peptide.

[1] = test system: aspartyl protease activity in conditioned media; assay: Pepstatin pretreatment of conditioned media, fluorogenic substrate cleavage; format: biochemical, C. albicans; settings: 10 μM pepstatin, VFILWRTE and TFSYnRWP substrates
Procedure: FIGS. 4A-4B depict probe activity in biofilm and planktonic conditioned media following pepstatin A pretreatment and in conditioned media from sap5Δ/Δ, sap6Δ/Δ, and sap5/6ΔΔ/ΔΔ deletion strains. […] Matched comparison to wild-type (SN425) conditioned media is provided (FIG. 12).
To further confirm probe selectivity for the target proteases, conditioned media preparations were also assayed from sap5Δ/Δ and sap6Δ/Δ single deletion mutant strains and a sap5/6ΔΔ/ΔΔ double deletion mutant strain (FIG. 4B). […] Indeed, shotgun proteomics analysis on matched biofilm conditioned media preparations from the wild-type reference and mutant strains confirmed an increase in Sap6 levels associated with the sap5Δ/Δ mutant strain. In contrast, there was no observable increase in Sap5 levels associated with the sap6Δ/Δ mutant strain in agreement with the activity results (Table 5). We note that substrate cleavage in the sap5/6ΔΔ/ΔΔ double deletion mutant strain indicates proteolytic activity from additional proteases that are in lower abundance, possibly reflecting compensation for loss of SAP5/SAP6.

[2] = test system: pepstatin-sensitive protease activity in rat serum; assay: Sap6 substrate cleavage in blood/serum from rat biofilm catheter and IV infection models; format: biochemical
Procedure: FIG. 16 depicts the detection of pepstatin-sensitive activity in serum from C. albicans biofilm rat catheter and disseminated infection models. Detection of pepstatin-sensitive protease activity with the TFSYnRWP (SEQ ID NO: 23) fluorogenic probe in rat serum samples. Blood was collected both directly from C. albicans biofilm-infected catheters and peripherally 48 hours post biofilm infection (N=3 rats). Blood was also sampled peripherally 24 hours post IV infection with C. albicans (10^6 CFUs) (N=3 rats). Uninfected rats were used as a healthy control (N=3 rats). Activity assays were carried out using serum samples that had been diluted 25-fold into pH 4.0 buffer.
FIG. 22 depicts detection of infection-specific aspartyl protease activity in serum from a rat catheter biofilm model using the Sap6-cleavable probe. Serum was collected both directly from the biofilm-infected catheter, peripherally from the rat jugular vein, and from the jugular vein of an uninfected control rat (n=2).
To provide validation of the protease activity-based diagnostic approach in a rat biofilm catheter model, blood was directly sampled from (i) the catheters of rats with introduced C. albicans biofilms, (ii) peripherally from the same rats, and, (iii) following IV infection, and (iv) as a control, from rats not exposed to C. albicans.

[3] = test system: conditioned media from C. albicans biofilm and planktonic cultures; assay: Fluorogenic substrate cleavage in biofilm and planktonic conditioned media; format: biochemical; settings: for preferential cleavage by biofilm culture medium (B/P): biofilm versus planktonic conditioned media
Procedure: Activity assays with internally quenched fluorogenic substrates were performed up to one hour in black 96-well round bottom plates (Costar) using a BioTek Synergy H4 Hybrid Multi-Mode Microplate Reader set to 37° C. The following excitation/emission wavelengths were used: 328 nm/393 nm (gain 96) for MCA and Ex/Em of 485 nm/538 nm (gain 94) for 5-FAM. RFU was corrected to moles of product formation as appropriate using a conversion factor calculated from the total proteolytic hydrolysis of each substrate. Activity assays with conditioned media were performed with 10 μM substrate and either 20 μg/mL protein sample for […] (SEQ ID NO: 22) or 10 μg/mL protein sample for TFSYnRWP (SEQ ID NO: 23). For assays with recombinant Saps, 2 μg/mL Sap5 and Sap6 were used with the following substrate concentrations: […] (10 μM; SEQ ID NO: 22), IYRnHVQL (25 μM; SEQ ID NO: 24), WPSnNKVG (25 μM; SEQ ID NO: 25), and TFSYnRWP (10 μM; SEQ ID NO: 23).

recombinant Sap6 = assay: Internally quenched fluorogenic substrate activity assay with recombinant Sap6; format: biochemical, C. albicans; settings: 2 μg/mL recombinant Sap, 10 μM substrate, pH 5.5
Procedure: Specific activity was determined with 2 μg/mL recombinant Saps and the substrates […] (10 μM, SEQ ID NO: 22), IYRnHVQL (25 μM; SEQ ID NO: 24), WPSnNKVG (25 μM; SEQ ID NO: 25), and TFSYnRWP (10 μM; SEQ ID NO: 23). RFU was converted to moles of product formation using a correction factor experimentally determined for each substrate.
For each protease, two 8-mer peptide sequences containing P4-P4′ residues from Sap5- or Sap6-favored cleavages were selected for incorporation into internally quenched fluorogenic peptides. The fluorogenic probes were synthesized bearing either a 5-carboxyfluorescein or 7-methoxycoumarin fluorophore with a corresponding quencher positioned at opposing termini such that peptide cleavage yields a fluorescence signal.
Activity assays with internally quenched fluorogenic substrates were performed up to one hour in black 96-well round bottom plates (Costar) using a BioTek Synergy H4 Hybrid Multi-Mode Microplate Reader set to 37° C. The following excitation/emission wavelengths were used: 328 nm/393 nm (gain 96) for MCA and Ex/Em of 485 nm/538 nm (gain 94) for 5-FAM. RFU was corrected to moles of product formation as appropriate using a conversion factor calculated from the total proteolytic hydrolysis of each substrate. Activity assays with conditioned media were performed with 10 μM substrate and either 20 μg/mL protein sample for […] […]

## CC(C)CC(=O)N[C@H](C(=O)N[C@H](C(=O)N[C@@H](CC(C)C)[C@@H](O)CC(=O)N[C@@H](C)C(=O)N[C@@H](CC(C)C)[C@@H](O)CC(=O)O)C(C)C)C(C)C [Pepstatin A] (Isovaleryl-VV[Sta]A[Sta]-OH)
Kex2
  sensitivity of Kex2-assigned cleavage sites to inhibitor treatment: insensitive
[1]
  effect of pepstatin pretreatment on substrate cleavage: significant reduction in substrate cleavage
[2]; pepstatin pretreatment
  effect of pepstatin pretreatment on TFSYnRWP cleavage in blood of infected rats: significantly reduced

## O=C(O)CN(CCN(CC(=O)O)CC(=O)O)CC(=O)O [EDTA]
Kex2
  sensitivity of Kex2-assigned cleavage sites to inhibitor treatment: sensitive

## VFILWRTE (also: CPQ2 quencher, place not given here, 5-FAM, place not given here, DArg-DArg-NH2, place not given here) [internally quenched fluorogenic substrate for Sap5]
[3]
  preferential cleavage by biofilm culture medium (B/P): 10 fold

## DArg-DArg-Lys(MCA)-Thr-Phe-Ser-Tyr-Nle-Arg-Trp-Pro-Lys(DNP) ({dR-dR-Lys(MCA)}-TFSY[Nle]RWP-{Lys(DNP)}) [TFSYnRWP, internally quenched fluorogenic substrate for Sap6]
Recombinant Sap6
  specific activity and selectivity for Sap6: highest specific activity and selectivity; also recorded: high specific activity and selectivity
[2]; C. albicans biofilm catheter or IV infected rats
  substrate cleavage in blood harvested from infected rats: readily detected
[2]; rats not exposed to C. albicans
  cleavage activity in uninfected rats: absent
[3]
  preferential cleavage by biofilm culture medium (B/P): 4.4 fold
[3]; sap5Δ/Δ single deletion strain
  substrate activity in sap5Δ/Δ deletion strain conditioned media: increased
[3]; wild-type, 24-hour conditioned media, 10 μM substrate
  substrate cleavage, biofilm versus planktonic conditioned media: higher biofilm activity
